Assay results: US12630565B2, “DNA-dependent protein kinase inhibitor” (DIZAL (JIANGSU) PHARMACEUTICAL CO., LTD., priority 2019, dated 2026)

Columns and labels:
[1] = molecular target: Full length human DNAPK protein (Homo sapiens, UniProt P78527); experiment: DNA-PK enzymatic assay (TR-FRET); assay type: biochemical; conditions: 10 μM ATP, 1.6 μM peptide substrate
MDR1, BCRP = experiment: MDCKII-MDR1-BCRP efflux assay; assay type: in vitro ADME; conditions: dog, pH 7.4, 5 μM compound, HBSS pH 7.4, read-out: MDCK-Mdr1-BCRP efflux ratio
Experimental: The apical-to-basolateral (A-B) and basolateral-to-apical (B-A) transport of compound in HBSS (25 mM HEPES, pH 7.4) was measured across MDCKII-MDR1-BCRP cell monolayers. Incubations were performed at approximately 37° C. for 120 min, with functionality of the test system being confirmed using 5 μM digoxin as a positive control substrate. Transport of 5 μM compound and control compound were determined by quantifying substrate concentration in the incubation medium of donor compartment at the beginning of the incubation period, and both donor and receiver compartments at the end of the incubation period. The data was used to calculate the apparent permeability (Papp). All incubations were performed in triplicate and integrity of the cell monolayers was confirmed using the marker Lucifer yellow.
The permeability coefficient Pexact (cm/s) was calculated using the equation: […]
The Pexact ratio was calculated using the equation: […]
The efflux ratio was calculated using the equation: […]
Where dCr/dt is the cumulative concentration of compound in the receiver chamber as a function of time (μM/s); Vr is the solution volume in the receiver chamber (0.1 mL on the apical side, 0.3 mL on the basolateral side); A is the surface area for the transport, i.e. 0.11 cm2 for the area of the monolayer; CO is the initial concentration in the donor chamber (μM).

Rat hepatocyte = experiment: Metabolic stability assay (rat hepatocyte Clint); assay type: in vitro ADME; conditions: 1 μM compound, cryopreserved hepatocytes 1 million cells per mL
Experimental: Viability of cryopreserved hepatocytes was determined using trypan blue and the cell conc. was adjusted to […] with buffer. 1 μM compound (in Acetonitrile; 0.01% DMSO) was incubated with 250 μL of hepatocytecells (1 million cells per mL) in a 96 deep well plate. Reaction was stopped at different time points (0, 0.5, 5, 15, 30, 45, 60, 80, 100 and 120 min) by addition of 3 volumes of chilled acetonitrile to 20 μL of reaction mixture and centrifuged at 4° C. for 15 min. 40 μL of supernatant was diluted to 200 μL with pure water and analyzed using LC-MS/MS.
In vitro hepatocyte clearance was estimated based on determination of elimination half-life (T1/2) of compounds disappearance from their initial concentrations. Peak area ratios of each compound (test or control) to IS was calculated. Drug elimination rate constant k (min−1), T1/2 (min), and in vitro intrinsic clearance CLint (μL/min/E6) was calculated according to the following equations: […]
Where Chep (cells×μL^−1) is the cell concentration in the incubation system.

[2] = Metabolic stability assay (human microsomal Clint); assay type: in vitro ADME; conditions: human, pooled human liver microsomes, pH 7.4, 1 μM compound, 1 mg/mL microsomes, 1 mM NADPH, 37° C.
Experimental: 1 μM compound was incubated with 1 mg/mL of microsomes (Pooled HLM with 20 mg/ml protein cone) at 37° C. in 250 μL of buffer (100 mM phosphate buffer, pH-7.4) containing 1 mM NADPH solution. 20 μL of incubation mix was quenched with 5 volumes chilled acetonitrile at different time points 0, 0.5, 5, 10, 15, 20 and 30 min in a fresh 96 well plate. The quench plate was centrifuged at 4000 rpm for 15 min. 40 μL of supernatant was diluted to 200 μL with pure water and analyzed using LC-MS/MS.
In vitro intrinsic clearance of the drugs in the microsome CLint (μl/min/mg) was calculated in the similar manner as the CLint in the hepatocyte.

With `Cc1cc2ncnn2cc1Nc1ncc2c(C)nn(C3CCCOCC3)c2n1` (single isomer, unassigned) [Example 33, 3-methyl-N-(7-methyl-[1,2,4]triazolo[1,5-a]pyridin-6-yl)-1-(oxepan-4-yl)-1H-pyrazolo[3,4-d]pyrimidin-6-amine] the IC50 [1] was 1.5 nM, the efflux ratio at 120 min, 5 μM (MDR1, BCRP) was 3 and the “Rat hepatocyte CLint (μl/min/10^−6 cells)” value (“Rat hepatocyte CLint” for short) (Rat hepatocyte) was 11.3 μl/min/10^−6 cells. The microsomal CLint at 1 μM [2] was 41.5 µL/min/mg.
With `Cc1cc2ncnn2cc1Nc1ncc2c(C)nn(C3CCOC(C)C3)c2n1` (single isomer, unassigned) [Example 35, 3-methyl-N-(7-methyl-[1,2,4]triazolo[1,5-a]pyridin-6-yl)-1-(2-methyltetrahydro-2H-pyran-4-yl)-1H-pyrazolo[3,4-d]pyrimidin-6-amine] the IC50 [1] was 2.8 nM, the efflux ratio at 120 min, 5 μM (MDR1, BCRP) was 1.7 and the “Rat hepatocyte CLint” value (Rat hepatocyte) was 21.7 μl/min/10^−6 cells. For the same molecule, the microsomal CLint at 1 μM [2] was 55.4 µL/min/mg.
With `Cc1cc2ncnn2cc1Nc1ncc2c(C)nn(C3CCOC3)c2n1` (single isomer, unassigned) [Example 48, 3-methyl-N-(7-methyl-[1,2,4]triazolo[1,5-a]pyridin-6-yl)-1-(tetrahydrofuran-3-yl)-1H-pyrazolo[3,4-d]pyrimidin-6-amine] the IC50 [1] was 1.8 nM, the efflux ratio at 120 min, 5 μM (MDR1, BCRP) was 3.6 and the “Rat hepatocyte CLint” value (Rat hepatocyte) was under 1 μl/min/10^−6 cells. For the same molecule, the microsomal CLint at 1 μM [2] was 11.1 µL/min/mg.
For `Cc1cc2ncnn2cc1Nc1ncc2c(C)nn(CC3CCCO3)c2n1` (single isomer, unassigned) [Example 50, 3-methyl-N-(7-methyl-[1,2,4]triazolo[1,5-a]pyridin-6-yl)-1-((tetrahydrofuran-2-yl)methyl)-1H-pyrazolo[3,4-d]pyrimidin-6-amine], the IC50 [1] was 7 nM, the efflux ratio at 120 min, 5 μM (MDR1, BCRP) was 2.7 and the “Rat hepatocyte CLint” value (Rat hepatocyte) was 2.1 μl/min/10^−6 cells. It also gave a microsomal CLint at 1 μM [2] of 12.2 µL/min/mg.
For `Cc1cc2ncnn2cc1Nc1ncc2c(C)nn(CC3CCOC3)c2n1` (single isomer, unassigned) [Example 52, 3-methyl-N-(7-methyl-[1,2,4]triazolo[1,5-a]pyridin-6-yl)-1-((tetrahydrofuran-3-yl)methyl)-1H-pyrazolo[3,4-d]pyrimidin-6-amine], the IC50 [1] was 10.8 nM, the efflux ratio at 120 min, 5 μM (MDR1, BCRP) was 3.2 and the “Rat hepatocyte CLint” value (Rat hepatocyte) was 4.9 μl/min/10^−6 cells. For the same molecule, the microsomal CLint at 1 μM [2] was 14.1 µL/min/mg.
For `Cc1cc2ncnn2cc1Nc1ncc2c(C)nn(C3CC(C)OC(C)C3)c2n1` (single isomer, unassigned) [Example 86, 1-(2,6-dimethyltetrahydro-2H-pyran-4-yl)-3-methyl-N-(7-methyl-[1,2,4]triazolo[1,5-a]pyridin-6-yl)-1H-pyrazolo[3,4-d]pyrimidin-6-amine], the IC50 [1] was 2.4 nM, the efflux ratio at 120 min, 5 μM (MDR1, BCRP) was 1.4 and the “Rat hepatocyte CLint” value (Rat hepatocyte) was 33.4 μl/min/10^−6 cells. It also gave a microsomal CLint at 1 μM [2] of over 300 µL/min/mg.
With `COC1CCC(n2nc(C)c3cnc(Nc4cn5ncnc5cc4C)nc32)C1` (single isomer, unassigned) [Example 108, 1-(3-methoxycyclopentyl)-3-methyl-N-(7-methyl-[1,2,4]triazolo[1,5-a]pyridin-6-yl)-1H-pyrazolo[3,4-d]pyrimidin-6-amine] the IC50 [1] was 1.9 nM, the efflux ratio at 120 min, 5 μM (MDR1, BCRP) was 2 and the “Rat hepatocyte CLint” value (Rat hepatocyte) was 17.2 μl/min/10^−6 cells. For the same molecule, the microsomal CLint at 1 μM [2] was 89 µL/min/mg.
With `Cc1cc2ncnn2cc1Nc1ncc2c(C)nn(C3CCOCC3C)c2n1` (single isomer, unassigned) [Example 112, 3-methyl-N-(7-methyl-[1,2,4]triazolo[1,5-a]pyridin-6-yl)-1-(3-methyltetrahydro-2H-pyran-4-yl)-1H-pyrazolo[3,4-d]pyrimidin-6-amine] the IC50 [1] was 3.7 nM, the efflux ratio at 120 min, 5 μM (MDR1, BCRP) was 3.5 and the “Rat hepatocyte CLint” value (Rat hepatocyte) was 7.8 μl/min/10^−6 cells. The microsomal CLint at 1 μM [2] was 47 µL/min/mg.
With `Cc1cc2ncnn2cc1Nc1ncc2c(C)nn(C3CCOC(C)(C)C3)c2n1` (single isomer, unassigned) [Example 116, 1-(2,2-dimethyltetrahydro-2H-pyran-4-yl)-3-methyl-N-(7-methyl-[1,2,4]triazolo[1,5-a]pyridin-6-yl)-1H-pyrazolo[3,4-d]pyrimidin-6-amine] the IC50 [1] was 1.6 nM, the efflux ratio at 120 min, 5 μM (MDR1, BCRP) was 2 and the “Rat hepatocyte CLint” value (Rat hepatocyte) was 9.6 μl/min/10^−6 cells. The microsomal CLint at 1 μM [2] was 71.1 µL/min/mg.
In the case of `Cc1cc2ncnn2cc1Nc1ncc2c(n1)c(C1CCOCC1)cn2C` [Example 3, 7-methyl-N-(5-methyl-7-(tetrahydro-2H-pyran-4-yl)-5H-pyrrolo[3,2-d]pyrimidin-2-yl)-[1,2,4]triazolo[1,5-a]pyridin-6-amine], the IC50 [1] is reported as 10.2 nM, the efflux ratio at 120 min, 5 μM (MDR1, BCRP) is reported as 3.1 and the “Rat hepatocyte CLint” value (Rat hepatocyte) is reported as 9.8 μl/min/10^−6 cells. It also gave a microsomal CLint at 1 μM [2] of 39.7 µL/min/mg.
In the case of `Cc1cc2ncnn2cc1Nc1ncc2c(n1)c(C(C)C)nn2C` [Example 4, 3-isopropyl-1-methyl-N-(7-methyl-[1,2,4]triazolo[1,5-a]pyridin-6-yl)-1H-pyrazolo[4,3-d]pyrimidin-5-amine], the IC50 [1] is reported as 1.6 nM, the efflux ratio at 120 min, 5 μM (MDR1, BCRP) is reported as 0.9 and the “Rat hepatocyte CLint” value (Rat hepatocyte) is reported as 10.7 μl/min/10^−6 cells. The microsomal CLint at 1 μM [2] was 47.3 µL/min/mg.
In the case of `Cc1cc2ncnn2cc1Nc1ncc2c(n1)c(C1CCCCC1)nn2C` [Example 5, 3-cyclohexyl-1-methyl-N-(7-methyl-[1,2,4]triazolo[1,5-a]pyridin-6-yl)-1H-pyrazolo[4,3-d]pyrimidin-5-amine], the IC50 [1] is reported as 0.4 nM, the efflux ratio at 120 min, 5 μM (MDR1, BCRP) is reported as 0.8 and the “Rat hepatocyte CLint” value (Rat hepatocyte) is reported as 22.8 μl/min/10^−6 cells. The microsomal CLint at 1 μM [2] was 135 µL/min/mg.
With `Cc1cc2nccn2cc1Nc1ncc2c(n1)c(C1=CCOCC1)nn2C` [Example 6, 3-(3,6-dihydro-2H-pyran-4-yl)-1-methyl-N-(7-methylimidazo[1,2-a]pyridin-6-yl)-1H-pyrazolo[4,3-d]pyrimidin-5-amine] the IC50 [1] was 1.6 nM, the efflux ratio at 120 min, 5 μM (MDR1, BCRP) was 4.9 and the “Rat hepatocyte CLint” value (Rat hepatocyte) was 6.8 μl/min/10^−6 cells. The microsomal CLint at 1 μM [2] was 35.5 µL/min/mg.
For `CO[C@H]1CC[C@@H](c2nn(C)c3cnc(Nc4cn5ncnc5cc4C)nc32)CC1` [Example 8, 3-((1s,4s)-4-methoxycyclohexyl)-1-methyl-N-(7-methyl-[1,2,4]triazolo[1,5-a]pyridin-6-yl)-1H-pyrazolo[4,3-d]pyrimidin-5-amine], the IC50 [1] was 0.7 nM, the efflux ratio at 120 min, 5 μM (MDR1, BCRP) was 1.7 and the “Rat hepatocyte CLint” value (Rat hepatocyte) was 20.7 μl/min/10^−6 cells. It also gave a microsomal CLint at 1 μM [2] of 234 µL/min/mg.
With `Cc1cc2ncnn2cc1Nc1ncc2c(n1)c(C1CCC(F)(F)CC1)nn2C` [Example 9, 3-(4,4-difluorocyclohexyl)-1-methyl-N-(7-methyl-[1,2,4]triazolo[1,5-a]pyridin-6-yl)-1H-pyrazolo[4,3-d]pyrimidin-5-amine] the IC50 [1] was 0.7 nM, the efflux ratio at 120 min, 5 μM (MDR1, BCRP) was 1.3 and the “Rat hepatocyte CLint” value (Rat hepatocyte) was 11.3 μl/min/10^−6 cells. The microsomal CLint at 1 μM [2] was 135 µL/min/mg.
For `[2H]C([2H])([2H])n1nc(C2CCOCC2)c2nc(Nc3cn4ncnc4cc3C)ncc21` [Example 10, 1-(methyl-d3)-N-(7-methyl-[1,2,4]triazolo[1,5-a]pyridin-6-yl)-3-(tetrahydro-2H-pyran-4-yl)-1H-pyrazolo[4,3-d]pyrimidin-5-amine], the IC50 [1] was 1.7 nM, the efflux ratio at 120 min, 5 μM (MDR1, BCRP) was 7.2 and the “Rat hepatocyte CLint” value (Rat hepatocyte) was 6.8 μl/min/10^−6 cells. The microsomal CLint at 1 μM [2] was 17.2 µL/min/mg.
In the case of `Cc1cc2ncnn2cc1Nc1ncc2c(n1)c([C@H]1CC[C@@H](OC(F)F)CC1)nn2C` [Example 11, 3-((1s,4s)-4-(difluoromethoxy)cyclohexyl)-1-methyl-N-(7-methyl-[1,2,4]triazolo[1,5-a]pyridin-6-yl)-1H-pyrazolo[4,3-d]pyrimidin-5-amine], the IC50 [1] is reported as 0.7 nM, the efflux ratio at 120 min, 5 μM (MDR1, BCRP) is reported as 1.8 and the “Rat hepatocyte CLint” value (Rat hepatocyte) is reported as 190.4 μl/min/10^−6 cells. The microsomal CLint at 1 μM [2] was over 300 µL/min/mg.
